“Also recorded” adds a separate entry of the source.
Test system: elevated heart rate
Assay: In vivo dog experiments: heart rate offset after iontophoretic ESA drug with pretreatment (Example A)
Parameters: species or system labrador dogs
Details: for Offset Slope Component (0-5) min: 0-5 min after heart rate begins to decline; for Offset Slope Component (5-10) min: 5-10 min after decline begins; for Offset Slope Component (10-30) min: 10-30 min after decline begins; for Change in Heart Rate (peak minus baseline) / Peak Heart Rate: Table II; for Onset Slope: baseline at onset time to peak heart rate; for Offset time: drug delivery stopped until within 20 bpm of baseline; for Offset Slope: drug shut-off to 20 bpm above baseline; for Delay: drug shut-off to start of heart rate decline; for t 1/2 of elevated heart rate decay: exponential fit; for Reduction in offset time: iontophoretic pre-delivery; for Onset time: start of delivery to start of increase in heart rate; for Time Start Decline: time when elevated heart rate began to decline

## CC(COc1ccccc1)N(CCCl)Cc1ccccc1 (stereo not drawn) [Phenoxybenzamine]
Listed as 18
  Offset Slope Component (0-5) min: -4.20 beats per minute per minute
  Offset Slope Component (5-10) min: 0.02 beats per minute per minute
  Offset Slope Component (10-30) min: -0.53 beats per minute per minute
  Change in Heart Rate (peak minus baseline): 57 bpm
  Peak Heart Rate: 117 bpm
  Onset Slope: 3.70 beats per minute per minute
  Offset time: 30.00 min
  Offset Slope: -0.80 beats per minute per minute
  Delay: 10.00 min
  Onset time: 18.00 min
  Time Start Decline: 28.00 min
Listed as 19
  Offset Slope Component (0-5) min: -4.90 beats per minute per minute
  Offset Slope Component (5-10) min: -2.00 beats per minute per minute
  Offset Slope Component (10-30) min: -1.80 beats per minute per minute
  Change in Heart Rate (peak minus baseline): 79 bpm
  Peak Heart Rate: 149 bpm
  Onset Slope: 13.90 beats per minute per minute
  Offset time: 25.80 min
  Offset Slope: -2.30 beats per minute per minute
  Delay: 3.50 min
  Onset time: 7.40 min
  Time Start Decline: 22.00 min
Table IV, listed as 18
  Total time (startup) thru offset plateau: w/in 10 bpm of baseline: 60 min
  t 1/2 of elevated heart rate decay: 16.96 min
Table IV, listed as 19
  Total time (startup) thru offset plateau: w/in 10 bpm of baseline: 48 min
  t 1/2 of elevated heart rate decay: 11.52 min
  Reduction in offset time: found effective when pre-delivered iontophoretically; also recorded: also reduce offset time

## COC(=O)c1cccnc1 [Methyl Nicotinate, methyl ester of nicotinic acid]
Listed as 9
  Offset Slope Component (0-5) min: -2.40 beats per minute per minute
  Offset Slope Component (5-10) min: -0.40 beats per minute per minute
  Offset Slope Component (10-30) min: -0.28 beats per minute per minute
  Change in Heart Rate (peak minus baseline): 55 bpm
  Peak Heart Rate: 117 bpm
  Onset Slope: 4.20 beats per minute per minute
  Offset time: 29.00 min
  Offset Slope: -0.40 beats per minute per minute
  Delay: 6.50 min
  Onset time: 15.00 min
  Time Start Decline: 25.00 min
Listed as 10
  Offset Slope Component (0-5) min: -1.40 beats per minute per minute
  Offset Slope Component (5-10) min: -2.40 beats per minute per minute
  Offset Slope Component (10-30) min: -1.90 beats per minute per minute
  Change in Heart Rate (peak minus baseline): 81 bpm
  Peak Heart Rate: 152 bpm
  Onset Slope: 12.30 beats per minute per minute
  Offset time: 31.00 min
  Offset Slope: -1.70 beats per minute per minute
  Delay: 2.50 min
  Onset time: 7.00 min
  Time Start Decline: 20.50 min
Table IV
  Total time (startup) thru offset plateau: w/in 20 bpm of baseline: 55 min
  t 1/2 of elevated heart rate decay: 21.36 min
Table IV, listed as 9
  Total time (startup) thru offset plateau: in words: Never Reached w/in 20 bpm of baseline
Table IV, listed as 10
  Total time (startup) thru offset plateau: in words: never lower
  Reduction in offset time: also reduce offset time

— patent US5383848A, “Iontophoretic administration of drugs” (Gensia, Inc., priority 1991, dated 1995)
